Here are results for three molecules from paper PMC7445743 (Journal of Medicinal Chemistry, 2020).

In data set [1] the target is T1, SYK (Homo sapiens, UniProt P43405). The note with it: supplement CSV.
Data set [2] has as its target T1, SYK. In words: biochemical. The note with it: read-out: Tm shift SYK.
In the next data set the target is CAMK2A (Homo sapiens, UniProt Q9UQM7). The note with it: supplement CSV.
The target in a further data set is CAMK1G (Homo sapiens, UniProt Q96NX5). The note with it: supplement CSV.
The test system of data set [3] is diet induced obesity mouse model. Description: OGTT in DIO mice, acute dosing study. It counts as in vivo, male C57Bl/6J mice. The note with it: single oral dose of 25 or 50 mg/kg 4 h prior to OGTT, vs vehicle. Here is the method: Animals were allocated to dosing groups (6 mice per group) such that groups were balanced as closely as possible for mean body weight. The day prior to the OGTT, all animals were deprived of food (but not water) beginning approximately 16:45. The following morning, the mice were dosed with vehicle or either 10 mg/kg, 25 mg/kg, or 50 mg/kg 18 formulated in a vehicle of DMSO (10% final volume) and 20% (2-hydroxypropyl)-β-cyclodextrin (90% final volume) by the oral route (beginning at 08:45). Four hours after dosing, a blood sample was taken (B1), and 3 min later glucose was administered (2 g/kg orally). Further blood samples were taken 10, 30, 60, and 90 min after glucose administration. Between blood sampling, animals were returned to the home cage with free access to water (but not food). Blood samples (approximately 30 μL) were collected into lithium heparinized tubes (Sarstedt Microvette CB300LH), and plasma was separated by centrifugation to produce a single aliquot of plasma, which was frozen (approximately −80 °C) and subsequently assayed for glucose (in duplicate; Thermoelectron Infinity glucose reagent TR15498) and insulin (single replicate; Alpco mouse ultrasensitive insulin kit 80, INSMSU-E10).

Data set [4] in a line: Microsome metabolism (MICs).
Data set [5] in a line: Microsome metabolism (MICs). The source holds these as a separate data set.
For a further data set, the target named is T2, PKNB(M.tuberculosis) (Mycobacterium tuberculosis, UniProt P9WI81).
T2 construct: purchased DiscoverX (Eurofins) KINOMEscan scanMAX; first lines in-house DSF / ADP-Glo
In words: KINOMEscan. It counts as binding.

For data set [6], the system named is diet induced obesity mouse model. In words: OGTT in DIO mice, chronic (14 day) dosing study. It counts as in vivo, male C57Bl/6J mice. The note with it: twice daily for 14 days (25 mg/kg). As to the method:
Upon completion of the OGTT, all animals were singly housed with food provided as above for 2 weeks prior to the onset of the baseline phase of the chronic study. Upon single housing after the OGTT, mice were placed on a reverse-phase light–dark cycle (lights off 09:30–17:30). Following this period, the animals underwent a 5-day baseline phase where they were dosed twice daily with vehicle at approximately 08:45 and 16:45 each day. Toward the end of the baseline phase mice were reallocated to dosing groups (8 animals per group) such that groups within the study were balanced as closely as possible for body weight, food and water intake, and previous treatment. From day 1 onward, mice were dosed orally twice daily with 25 mg/kg 18 formulated in a vehicle of DMSO (10% final volume) and 20% (2-hydroxypropyl)-β-cyclodextrin (90% final volume) on days 1–6 and 1% methyl cellulose at 5 mL/kg on subsequent days or twice daily orally with vehicle alone or subcutaneously with 0.1 mg/kg liraglutide (Bachem) formulated in pH 7.4 phosphate buffer solution. Oral dosing began at approximately 08:45 and 16:45, with subcutaneous dosing at 08:45 only. […] Plasma glucose and insulin data from the OGTTs were analyzed by robust regression with treatment as a factor and bleeding order and day 1 body weight as covariates. […]

In data set [7] the test system is kinase panel (468 Assays Tested). In words: Pan-kinome selectivity, competitive binding assay (KINOMEscan). The note with it: for S-Score(35): 1 μM.
Data set [8] in a line: Microsome metabolism (MICs). The source holds these as a separate data set.
Data set [9] is described as follows: Hepatocyte metabolism (Heps). It counts as in vitro ADME.
A further data set deals with PAK4 (Homo sapiens, UniProt O96013). The note with it: supplement CSV.
A short description of data set [10]: in vitro. The note with it: mouse, plasma.
The nature of data set [11]: in vitro. The note with it: rat, plasma.
Another data set in a line: in vivo. The note with it: male, Crl:CD Sprague-Dawley, rat, iv, 2 mg/kg.
A further data set concerns NGS mice. In words: Tolerability study in NGS mice. It is filed as in vivo. The note with it: 40 mg/kg once daily for 21 days, 50:45:5 PEG400/water/ethanol.
Data set [12] in a line: in vitro. The note with it: human, plasma.

Where a name gives a salt, the structure may show the parent alone.

CAMK1G, sequence (Q96NX5 whole entry): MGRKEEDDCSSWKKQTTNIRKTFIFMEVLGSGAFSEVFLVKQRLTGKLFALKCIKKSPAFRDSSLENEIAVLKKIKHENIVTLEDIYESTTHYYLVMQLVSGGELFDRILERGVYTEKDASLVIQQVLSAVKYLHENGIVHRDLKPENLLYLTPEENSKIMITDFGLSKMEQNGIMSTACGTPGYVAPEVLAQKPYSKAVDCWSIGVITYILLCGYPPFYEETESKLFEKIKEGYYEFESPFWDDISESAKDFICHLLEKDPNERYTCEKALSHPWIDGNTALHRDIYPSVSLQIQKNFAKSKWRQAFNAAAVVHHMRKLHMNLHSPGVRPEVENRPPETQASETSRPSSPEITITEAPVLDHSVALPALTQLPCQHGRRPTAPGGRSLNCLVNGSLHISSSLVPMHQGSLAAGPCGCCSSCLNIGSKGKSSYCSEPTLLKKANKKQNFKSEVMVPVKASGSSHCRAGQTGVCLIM
T2 sequence (P9WI81 whole entry): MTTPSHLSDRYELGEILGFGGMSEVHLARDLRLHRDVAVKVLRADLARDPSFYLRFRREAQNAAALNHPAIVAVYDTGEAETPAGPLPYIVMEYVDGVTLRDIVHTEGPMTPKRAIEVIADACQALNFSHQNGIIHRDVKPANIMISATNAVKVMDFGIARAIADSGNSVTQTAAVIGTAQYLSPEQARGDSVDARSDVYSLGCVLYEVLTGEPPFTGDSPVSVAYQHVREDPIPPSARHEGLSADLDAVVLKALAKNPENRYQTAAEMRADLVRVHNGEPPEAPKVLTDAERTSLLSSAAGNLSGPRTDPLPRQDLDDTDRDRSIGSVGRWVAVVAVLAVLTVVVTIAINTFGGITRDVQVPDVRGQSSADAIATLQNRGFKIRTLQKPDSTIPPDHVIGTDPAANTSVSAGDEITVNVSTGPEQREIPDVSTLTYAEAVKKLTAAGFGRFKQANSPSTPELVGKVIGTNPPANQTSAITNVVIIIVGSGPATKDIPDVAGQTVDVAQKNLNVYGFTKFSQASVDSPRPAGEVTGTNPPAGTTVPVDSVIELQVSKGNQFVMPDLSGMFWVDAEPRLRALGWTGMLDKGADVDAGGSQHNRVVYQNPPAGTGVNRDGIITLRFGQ
PAK4, sequence (O96013 whole entry): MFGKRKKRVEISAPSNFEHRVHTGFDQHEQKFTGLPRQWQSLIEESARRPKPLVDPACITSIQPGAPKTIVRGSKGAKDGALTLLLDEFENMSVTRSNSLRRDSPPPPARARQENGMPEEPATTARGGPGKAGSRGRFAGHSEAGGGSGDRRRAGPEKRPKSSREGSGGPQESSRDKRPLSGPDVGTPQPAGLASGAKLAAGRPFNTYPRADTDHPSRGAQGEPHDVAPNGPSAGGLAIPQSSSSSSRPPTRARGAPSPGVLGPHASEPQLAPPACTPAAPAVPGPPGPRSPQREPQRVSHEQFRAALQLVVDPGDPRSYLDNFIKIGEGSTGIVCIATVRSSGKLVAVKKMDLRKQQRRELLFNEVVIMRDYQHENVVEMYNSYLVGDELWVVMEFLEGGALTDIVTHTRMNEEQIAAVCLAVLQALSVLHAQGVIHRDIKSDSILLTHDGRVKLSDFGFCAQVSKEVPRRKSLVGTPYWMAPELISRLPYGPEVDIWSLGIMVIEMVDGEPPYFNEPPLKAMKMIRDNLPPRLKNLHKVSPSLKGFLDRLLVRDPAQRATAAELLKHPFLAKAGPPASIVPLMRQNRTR
CAMK2A, sequence (Q9UQM7 whole entry): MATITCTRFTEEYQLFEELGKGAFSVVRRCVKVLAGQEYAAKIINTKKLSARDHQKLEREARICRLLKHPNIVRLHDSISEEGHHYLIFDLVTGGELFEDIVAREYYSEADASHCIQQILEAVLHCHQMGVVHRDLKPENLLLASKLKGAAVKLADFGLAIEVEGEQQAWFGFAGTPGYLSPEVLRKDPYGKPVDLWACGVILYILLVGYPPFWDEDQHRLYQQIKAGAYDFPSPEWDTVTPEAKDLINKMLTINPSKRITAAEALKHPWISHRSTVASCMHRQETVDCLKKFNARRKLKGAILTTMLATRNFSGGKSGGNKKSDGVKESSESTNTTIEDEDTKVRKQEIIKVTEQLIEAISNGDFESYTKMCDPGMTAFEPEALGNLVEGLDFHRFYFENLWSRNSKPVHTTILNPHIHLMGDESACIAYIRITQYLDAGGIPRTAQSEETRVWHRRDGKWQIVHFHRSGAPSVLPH

As for `NC(=O)c1cnc(N2CCC[C@@H](N)C2)nc1Nc1cccc(C(F)(F)F)c1` [Compound 7, (R)-2-(3-Aminopiperidin-1-yl)-4-((3-(trifluoromethyl)phenyl)amino)pyrimidine-5-carboxamide Hydrochloride], the “SYK Tm” value at SYK [1] is given as 6.82 0C. Moreover, the ΔTm at 10 µM at SYK [2] was found to be 6.82 °C. For the same molecule, at CAMK2A, the “CAMK2A Tm” value is given as 1.17 0C. On CAMK1G, the “CAMK1G Tm” value is listed as 6.58 0C.
For the molecule `CC(C)(C#N)c1cc(Nc2nc(N3CCC[C@H](N)C3)ncc2C(N)=O)cc(C(C)(C)C#N)c1` [Compound 18, (S)-2-(3-Aminopiperidin-1-yl)-4-((3,5-bis(2-cyanopropan-2-yl)phenyl)amino)pyrimidine-5-carboxamide Hydrochloride], the “glucose control and insulin sensitivity in OGTT” value in data set [3] was “improved glucose control and increased insulin sensitivity”. Moreover, the “rat MICs” value in data set [4] is reported as under 1 μL·min^–1·mg^–1. For the same molecule, the “mouse MICs” value in data set [5] was determined as 15 μL·min^–1·mg^–1. At PKNB(M.tuberculosis), the remaining binding at 1 µM came to 84%. In addition, in [6], the “baseline glucose and insulin levels, peak glucose following OGTT” value was “reduced baseline glucose and insulin levels, as well as reduced peak glucose levels”; the “glucose AUCB2” value is reported as “no effect”. In addition, the “S-Score(35)” value in data set [7] is given as 0.03. In addition, in data set [7] (468 Assays Tested), the “Interactions Mapped” value came out at 23. Moreover, the “human MICs” value in [8] is listed as 13 μL·min^–1·mg^–1.
For orientation: fraction unbound means the share of the substance not bound to proteins or other matrix. Read a high fraction unbound as much free substance. One may read the clearance as the rate of elimination divided by the concentration. On to `CC(C)c1cc(Nc2nc(N3CCC[C@H](N)C3)ncc2C(N)=O)cc(C(C)C)n1` [Compound 19, (S)-2-(3-Aminopiperidin-1-yl)-4-((2,6-diisopropylpyridin-4-yl)amino)pyrimidine-5-carboxamide], for which, in data set [9], the “human Heps” value came to 19 μL·min^–1 per 10^6 cells. Also, the “rat MICs” value in [4] was determined as 3 μL·min^–1·mg^–1. In data set [5], the “mouse MICs” value was found to be 6 μL·min^–1·mg^–1. At PKNB(M.tuberculosis), the remaining binding at 1 µM stood at 83%. The “PAK4 Tm” value at PAK4 is given as 3.31 0C. Moreover, the fraction unbound was 0.06 in the data set “in vitro [10]”, 0.08 in the data set “in vitro [11]” and 0.11 in “in vitro [12]”. Besides, the “S-Score(35)” value in data set [7] was found to be 0.03. Moreover, the clearance in the data set “in vivo” is 36.5 mL/min/kg. Besides, the tolerability entry in the data set on NGS mice was “no observable adverse effects”. For the same molecule, the “CAMK1G Tm” value at CAMK1G is reported as 16.35 0C. In addition, in data set [8], the “human MICs” value is reported as 7 μL·min^–1·mg^–1.
